Experimental data published in patent publication US9963467B2, “Boronic acid derivatives and therapeutic uses thereof” (Rempex Pharmaceuticals, Inc., priority 2014, dated 2018).

What was measured:
KP1005 (CTX-M-14) [1] = assay: Aztreonam potentiation (MPC@4), KP1005; assay type: cell-based; conditions: BLI with aztreonam at 4 μg/mL
ec302 (TEM-10) [2] = assay: Aztreonam potentiation (MPC@4), ec302; assay type: cell-based; conditions: BLI with aztreonam at 4 μg/mL
KP1004 (KPC-2) [3] = assay: Aztreonam potentiation (MPC@4), KP1004; assay type: cell-based; conditions: BLI with aztreonam at 4 μg/mL
ECL1002 [4] = assay: Aztreonam potentiation (MPC@4), ECL1002; assay type: cell-based; conditions: BLI with aztreonam at 4 μg/mL
EC1010 (CMY-6) [5] = assay: organism not typed; assay type: cell-based
KP1005 (CTX-M-14) [6] = assay: Tigemonam potentiation (MPC@4), KP1005; assay type: cell-based; conditions: BLI with tigemonam at 4 μg/mL
KP1009 (CTX-M-15) [7] = assay: Tigemonam potentiation (MPC@4), KP1009; assay type: cell-based; conditions: BLI with tigemonam at 4 μg/mL
ec308 (SHV-5) [8] = assay: Tigemonam potentiation (MPC@4), ec308; assay type: cell-based
KP1010 (SHV-12) [9] = assay: Tigemonam potentiation (MPC@4), KP1010; assay type: cell-based
ec302 (TEM-10) [10] = assay: Tigemonam potentiation (MPC@4), ec302; assay type: cell-based
ECL1002 [11] = assay: Tigemonam potentiation (MPC@4), ECL1002; assay type: cell-based; conditions: BLI with tigemonam at 4 μg/mL
EC1010 (CMY-6) [12] = assay: Tigemonam potentiation (MPC@4), EC1010; assay type: cell-based; conditions: BLI with tigemonam at 4 μg/mL
CTX-M-14 = CTX-M-14 (Escherichia coli, UniProt Q9L5C7); assay: Ki, nitrocefin cleavage by purified enzyme, CTX-M-14; assay type: biochemical; conditions: nitrocefin reporter substrate; read-out: Ki (CTX-M-14, NCF)
How it was run: (§1)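 Steps: enzyme plus inhibitor dilutions in reaction buffer; 10 min at room temperature; add nitrocefin; read absorbance at 490 nm each 10 sec for 10 min.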

SHV-12 = SHV-12 (Klebsiella pneumoniae, UniProt P0AD64, E235K/G234S/L31Q); assay: Ki, nitrocefin cleavage by purified enzyme, SHV-12; assay type: biochemical; conditions: nitrocefin reporter substrate; read-out: Ki (SHV-12, NCF)
How it was run: as §1

KPC-2 = KPC-2 (Klebsiella pneumoniae, UniProt Q9F663); assay: Ki, nitrocefin cleavage by purified enzyme, KPC-2; assay type: biochemical; conditions: nitrocefin reporter substrate; read-out: Ki (KPC-2, NCF)
How it was run: as §1

P99 = P99 (Enterobacter cloacae, UniProt P05364); assay: Ki, nitrocefin cleavage by purified enzyme, P99; assay type: biochemical; conditions: nitrocefin reporter substrate; read-out: Ki (P99, NCF)
How it was run: as §1

Pa AmpC = Pa AmpC (Pseudomonas aeruginosa, UniProt P24735); assay: Ki, nitrocefin cleavage by purified enzyme, Pa AmpC; assay type: biochemical; conditions: nitrocefin reporter substrate; read-out: Ki (Pa AmpC, NCF)
How it was run: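 Purified β-lactamases preincubated 10 min at room temperature with varying inhibitor concentrations in reaction buffer. Nitrocefin then added as reporter substrate; cleavage followed at 490 nm every 10 sec for 10 min to derive Ki.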

OXA-48 = OXA-48 (Klebsiella pneumoniae, UniProt Q6XEC0); assay: Ki, nitrocefin cleavage by purified enzyme, OXA-48; assay type: biochemical; conditions: nitrocefin reporter substrate; read-out: Ki (OXA-48, NCF)
How it was run: as §1

[13] = Intravenous pharmacokinetics; assay type: in vivo; conditions: rat, plasma; rats, 20 mg/kg, intravenous infusion over 0.5 hours; read-out: Free Cl (converted)
Description: Rats (n=3 per compound) were administered by a single infusion. Intravenous doses were infused over 0.5 hours via an indwelling femoral vein cannula. […] (˜0.3 mL) samples were collected from each rat at designated time points up to 24 hours. Blood samples were centrifuged within 5 min of collection at 12000 g for 5 min to obtain plasma. The plasma samples were stored at −80° C. until analyzed. Data were analyzed using WinNonlin. The doses of all compounds tested were 20 mg/kg.

[14] = Monomer content of pH adjusted aqueous solutions (LC-UV); assay type: physicochemical; conditions: 1 mg/mL aqueous salt solution, pH adjusted to 7.6 to 8, LC-UV
How it was run: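 Aqueous solutions at 1.00, 10.0 or 100 mg/mL (active fraction) brought to pH 7.6–8 with acid or base, compound fully dissolved. Injected within half an hour of preparation onto C18 reversed-phase LC (0.1% TFA water / 0.085% TFA methanol gradient); UV detection at 220, 254 and 300 nm.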

KP1004 (KPC-2) [15] = assay: Biapenem potentiation (MPC@1), KP1004; conditions: BLI with biapenem at 1 μg/mL
KP1086 (OXA-48) = assay: Biapenem potentiation (MPC@1), KP1086; conditions: BLI with biapenem at 1 μg/mL
KP1009 (CTX-M-15) [16] = assay: organism not typed; assay type: cell-based
ec308 (SHV-5) [17] = assay: Aztreonam potentiation (MPC@4), ec308; assay type: cell-based; conditions: BLI with aztreonam at 4 μg/mL
KP1010 (SHV-12) [18] = assay: Aztreonam potentiation (MPC@4), KP1010; assay type: cell-based
PAM1032/KPC-2 = assay: Biapenem potentiation MPC64, PAM1032/KPC-2 (efflux proficient); assay type: cell-based, Pseudomonas aeruginosa; conditions: BLI to decrease MIC of biapenem 64-fold; MexAB-OprM overexpressed
Description: Efflux of BLIs from Pseudomonas aeruginosa by the MexAB-OprM efflux pump was also evaluated. […] Due to expression of KPC-2 both strains became resistant to biapenem. […] Potency of BLIs to potentiate biapenem in these strains was determined. […] The ratio of MPC64 values for each BLI in PAM1032/KPC-2 (efflux proficient) and PAM1154/KPC-2 (efflux deficient) was determined to generate the Efflux Index (EI).

Sequence of OXA-48 (Q6XEC0 23-265, looked up, species assumed): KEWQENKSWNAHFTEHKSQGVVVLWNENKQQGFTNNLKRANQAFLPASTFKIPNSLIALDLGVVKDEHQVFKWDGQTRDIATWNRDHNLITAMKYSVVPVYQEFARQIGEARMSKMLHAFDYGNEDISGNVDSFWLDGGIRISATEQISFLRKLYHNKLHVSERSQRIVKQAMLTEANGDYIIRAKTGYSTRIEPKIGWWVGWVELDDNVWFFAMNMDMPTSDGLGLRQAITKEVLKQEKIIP
Sequence of CTX-M-14 (Q9L5C7 29-291): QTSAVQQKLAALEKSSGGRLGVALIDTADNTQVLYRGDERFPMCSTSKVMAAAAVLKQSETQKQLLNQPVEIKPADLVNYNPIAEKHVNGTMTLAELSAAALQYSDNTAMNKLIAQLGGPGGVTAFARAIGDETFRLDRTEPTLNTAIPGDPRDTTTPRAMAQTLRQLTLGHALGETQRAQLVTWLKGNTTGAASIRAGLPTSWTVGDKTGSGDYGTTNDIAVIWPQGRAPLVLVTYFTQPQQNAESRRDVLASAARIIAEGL
Sequence of KPC-2 (Q9F663 25-293, looked up, species assumed): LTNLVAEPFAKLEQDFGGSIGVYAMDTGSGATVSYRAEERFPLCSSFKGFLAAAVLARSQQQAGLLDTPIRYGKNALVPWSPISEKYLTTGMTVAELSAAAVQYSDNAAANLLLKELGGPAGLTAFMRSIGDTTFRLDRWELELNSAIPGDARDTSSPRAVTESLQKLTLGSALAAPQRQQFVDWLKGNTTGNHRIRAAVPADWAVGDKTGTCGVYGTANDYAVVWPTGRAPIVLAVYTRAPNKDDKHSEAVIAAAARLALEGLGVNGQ
Sequence of P99 (P05364 21-381): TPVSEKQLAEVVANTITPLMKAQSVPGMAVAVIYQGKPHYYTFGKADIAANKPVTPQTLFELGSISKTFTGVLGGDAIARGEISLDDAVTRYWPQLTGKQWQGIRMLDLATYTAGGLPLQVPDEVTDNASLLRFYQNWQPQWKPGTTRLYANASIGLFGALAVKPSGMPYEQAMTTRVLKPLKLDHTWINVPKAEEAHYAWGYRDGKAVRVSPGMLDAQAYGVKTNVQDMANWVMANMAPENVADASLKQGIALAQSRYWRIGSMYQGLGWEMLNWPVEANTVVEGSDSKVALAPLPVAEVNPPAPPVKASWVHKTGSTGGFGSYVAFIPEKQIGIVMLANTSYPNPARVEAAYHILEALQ
Sequence of Pa AmpC (P24735 27-397): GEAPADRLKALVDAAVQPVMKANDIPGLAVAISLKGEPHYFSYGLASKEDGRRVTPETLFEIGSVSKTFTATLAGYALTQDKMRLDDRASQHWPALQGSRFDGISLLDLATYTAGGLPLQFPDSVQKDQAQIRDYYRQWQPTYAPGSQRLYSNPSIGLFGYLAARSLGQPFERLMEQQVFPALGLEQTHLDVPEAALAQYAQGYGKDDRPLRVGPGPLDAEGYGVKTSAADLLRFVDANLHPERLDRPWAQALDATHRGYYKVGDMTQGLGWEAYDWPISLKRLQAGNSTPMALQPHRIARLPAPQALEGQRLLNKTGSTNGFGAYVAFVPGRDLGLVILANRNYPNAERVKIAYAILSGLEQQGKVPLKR
Sequence of SHV-12 (P0AD64 22-286 L31Q/G234S/E235K): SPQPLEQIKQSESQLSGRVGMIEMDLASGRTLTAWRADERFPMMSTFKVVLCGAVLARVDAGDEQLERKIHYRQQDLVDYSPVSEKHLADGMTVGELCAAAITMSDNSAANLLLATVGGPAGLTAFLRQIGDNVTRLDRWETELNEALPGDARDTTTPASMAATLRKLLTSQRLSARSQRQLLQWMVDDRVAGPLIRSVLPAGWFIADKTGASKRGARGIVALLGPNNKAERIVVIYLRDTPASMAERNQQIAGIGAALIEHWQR

| SMILES | AZT MPC4 CMY-6 EC1010 (EC1010 (CMY-6) [5]) | TIG MPC4 CTX-M-14 KP1005 (KP1005 (CTX-M-14) [6]) | TIG MPC4 CTX-M-15 KP1009 (KP1009 (CTX-M-15) [7]) | TIG MPC4 SHV-5 ec308 (ec308 (SHV-5) [8]) | TIG MPC4 SHV-12 KP1010 (KP1010 (SHV-12) [9]) | TIG MPC4 TEM-10 ec302 (ec302 (TEM-10) [10]) | TIG MPC4 ECL1002 (ECL1002 [11]) | clearance [13] | BPM MPC1 KP1004 KPC-2 (KP1004 (KPC-2) [15]) | BPM MPC1 OXA-48 KP1086 (KP1086 (OXA-48)) | further results |
| --- | --- | --- | --- | --- | --- | --- | --- | --- | --- | --- | --- |
| O=C(CSC(F)F)N[C@H]1Cc2ccc(F)c(C(=O)O)c2OB1O [Compound 3, (R)-3-(2-(difluoromethylthio)acetamido)-7-fluoro-2-hydroxy-3,4-dihydro-2H-benzo[e][1,2]oxaborinine-8-carboxylic acid] | Y (key: X: MIC of less than 1 ng/mL; Y: MIC of 1 μg/mL to 10 μg/mL; Z: MIC of greater than 10 μg/mL) | X (MIC of less than 1 μg/mL) | X (MIC of less than 1 μg/mL) | X (key: X: MIC of less than 1 μg/mL; Y: MIC of 1 μg/mL to 10 μg/mL; Z: MIC of greater than 10 μg/mL) | X (key: X: MIC of less than 1 μg/mL; Y: MIC of 1 μg/mL to 10 μg/mL; Z: MIC of greater than 10 μg/mL) | Y (key: X: MIC of less than 1 ng/mL; Y: MIC of 1 μg/mL to 10 μg/mL; Z: MIC of greater than 10 μg/mL) | Y (MIC of 1 μg/mL to 10 μg/mL) | 13 mL/min/kg | X (MIC of less than 1 μg/mL) | Z (MIC of greater than 10 μg/mL) | AZT MPC4 CTX-M-14 KP1005 (KP1005 (CTX-M-14) [1]): Y (MIC of 1 μg/mL to 10 μg/mL); AZT MPC4 TEM-10 ec302 (ec302 (TEM-10) [2]): X (MIC of less than 1 ng/mL); AZT MPC4 KPC-2 KP1004 (KP1004 (KPC-2) [3]): Y (MIC of 1 μg/mL to 10 μg/mL); AZT MPC4 ECL1002 (ECL1002 [4]): Y (MIC of 1 μg/mL to 10 μg/mL); TIG MPC4 CMY-6 EC1010 (EC1010 (CMY-6) [12]): X (MIC of less than 1 μg/mL); Ki (CTX-M-14): < 1 nM; Ki (SHV-12): < 1 nM; Ki (KPC-2): > 10 nM; Ki (P99): > 10 nM; Ki (Pa AmpC): > 10 nM; Ki (OXA-48): 1 to 10 nM; % Monomer in 1 mg/mL salt solution [14]: 99.8% |
| O=C(Cc1cccs1)N[C@H]1Cc2cccc(C(=O)O)c2OB1O [I, reference compound] | Y (key: X: MIC of less than 1 ng/mL; Y: MIC of 1 μg/mL to 10 μg/mL; Z: MIC of greater than 10 μg/mL) | Y (MIC of 1 μg/mL to 10 μg/mL) | Y (MIC of 1 μg/mL to 10 μg/mL) | X (key: X: MIC of less than 1 μg/mL; Y: MIC of 1 μg/mL to 10 μg/mL; Z: MIC of greater than 10 μg/mL) | X (key: X: MIC of less than 1 μg/mL; Y: MIC of 1 μg/mL to 10 μg/mL; Z: MIC of greater than 10 μg/mL) | Z (key: X: MIC of less than 1 ng/mL; Y: MIC of 1 μg/mL to 10 μg/mL; Z: MIC of greater than 10 μg/mL) | X (MIC of less than 1 μg/mL) | 136 mL/min/kg | X (MIC of less than 1 μg/mL) | Y (MIC of 1 μg/mL to 10 μg/mL) | AZT MPC4 CTX-M-15 KP1009 (KP1009 (CTX-M-15) [16]): Y (key: X: MIC of less than 1 ng/mL; Y: MIC of 1 μg/mL to 10 μg/mL; Z: MIC of greater than 10 μg/mL); AZT MPC4 SHV-5 ec308 (ec308 (SHV-5) [17]): X (MIC of less than 1 ng/mL); AZT MPC4 SHV-12 KP1010 (KP1010 (SHV-12) [18]): X (key: X: MIC of less than 1 ng/mL; Y: MIC of 1 μg/mL to 10 μg/mL; Z: MIC of greater than 10 μg/mL); PAM1032/KPC-2 Biapenem MPC64 (PAM1032/KPC-2): 80 |
